Like-named read-outs stand apart in the source and are kept apart here.
Key:
U87 cell line = test: Subcutaneous human glioma xenograft in SCID mice; assay type: in vivo; conditions: for tumor volume at day 21: U87 subcutaneous xenograft, 20 mg/kg/day intraperitoneal, 21 days, control 1514 mm^3; for median survival: U87 xenograft, 20 mg/kg, control 15 days
Description: To examine the anti-glioma effects of DMC-BH in vivo, a human glioma-SCID (severe combined immunodeficient) mouse model was established using the U87 cell line. […] The tumor volumes for the control, TMZ, DMC, and DMC-BH mice at day 21 were 1514 mm^3, 587 mm^3, 876 mm^3 and 570 mm^3, respectively. […] As shown in the Kaplan-Meier curves, the median survival was 15, 27, 19 and 35 days for the control, TMZ, DMC and DMC-BH groups, respectively (Figure 3B).
Figure 3 DMC-BH inhibited U87 glioma cell growth in vivo. Subcutaneous tumors generated from U87 cells were allowed to reach a volume of 150-200 mm^3 and were treated with 20 mg/kg TMZ, DMC or DMC-BH for 21 days. (A) Tumor volume was recorded according to treatment group at the indicated day. (B) The survival of brain tumor-bearing mice was recorded and represented in a Kaplan-Meier plot.
1-[4-Hydroxy-3-(pyrrolidin-1-ylmethyl) phenyl]-7-(4-hydroxy-3-methoxyphenyl) hepta-1,6-diene-3,5-dione, named DMC-BH, was constructed by our lab. DMC was obtained from Sigma-Aldrich (St. Louis, MO). To test the anti-glioma effect of DMC-BH in vivo, a xenograft model of human glioma was established. Four-week-old male SCID mice were purchased from Vital River Laboratory Animal Technology Co., Ltd. (Beijing, China). After a 1-week acclimatization, SCID mice were injected subcutaneously in the right flank with 6 × 10^5 […] glioma cells resuspended in 50 μL DMEM media. Treatment was initiated when the subcutaneous tumors reached an average size of 150 mm^3 to 200 mm^3. Mice received intraperitoneal injection of DMC (20 mg/kg/day), DMC-BH (20 mg/kg/day), TMZ (20 mg/kg/day) or vehicle as a control. Tumor diameter was measured every 2 days with calipers, and the tumor volume was calculated (length × width × height × 0.5). All experiments were carried out in keeping with the procedures and protocols of the Animal Ethics Committee of the First People's Hospital of Kunshan.

[1] = BBB penetrability (brain-to-plasma AUC ratio); assay type: in vivo
Description: (§1) To determine whether DMC-BH inhibits the growth of glioma in the brain, we assessed its octanol-water partition coefficients and BBB penetrability. The hydrophobic parameters (logP) of DMC-BH and DMC were estimated under physiological as well as in acidic and basic conditions. The logP values for DMC-BH were negative at pH 2.5 and pH 9.0, as it was an amphoteric compound. At low pH or high pH conditions, DMC-BH occurred in the form of salts, and its logP values became negative due to better solubility.
(§2) Figure 2 Octanol-water partition coefficients (logP) and BBB penetrability of DMC-BH. (A) The logP was defined as log(Coctanol/Cwater). The amount of the compound in the water phase was determined spectrophotometrically, and the amount in the octanol phase was obtained by subtracting the supernatant concentration from the total concentration. (B) The BBB penetrability was defined as a brain-to-plasma AUC(time point) ratio. Values are expressed as the means ± SEM of 3 independent experiments.

[2] = Octanol-water partition coefficient; assay type: physicochemical
Description: as §1, §2
The partition coefficient (P) between n-octanol and water was determined. The buffer mixture (0.05 M citric buffer, pH 2.5; 0.05 M acetic acid buffer, pH 5.5; 5 mM PBS, pH 7.4; or 0.05 M bicarbonate buffer, pH 9.0) and n-octanol was pre-equilibrated overnight at room temperature. After addition of the DMC or DMC-BH, the mixture was vortexed for 10 minutes and incubated at room temperature for an additional 15 minutes before centrifugation at 1000 g for 5 minutes. The amount of the compound in water phase was determined spectrophotometrically using standard curves, and the amount in lipid phase was obtained by subtracting the supernatant concentration from the total concentration, measured before mixing of the phases. P was determined according to P = (noct/Voct)/(nw/Vw), where n denotes the number of compound moles, V is the volume and the subscripts oct and w refer to n-octanol and aqueous phase, respectively.

[3] = test system: glioblastoma multiforme (GBM) patient derived tumors; test: Patient-derived tumor xenograft (PDTX) model; assay type: in vivo, mice
Description: In recent years, PDTX models have been used to mimic human tumors. These models are more clinically relevant than cell line-based xenograft models. Thus, we performed an in vivo study in a PDTX tumor model by implanting human glioma samples from a patient donor into B-NDG mice (Figure 7A).
Figure 7 In vivo anti-tumor activity of DMC-BH in the PDTX tumor model. (A) A scheme illustrating the process of creating the patient-derived tumor model. (B) Tumor growth curves of mice after treatment with 7.5 mg/kg, 15 mg/kg or 30 mg/kg DMC-BH or 20 mg/kg TMZ. (C) Average tumor weight at day 21 after different treatments. (D) Quantification of the Ki67-positive area in different treatment groups. (E) Representative H&E-stained tumor slices and Ki67 immunofluorescence labeled tumor tissue sections from different treatments groups. The data are shown as mean ± SD (n = 6).
Surgically resected human glioma tissue was obtained from a cancer patient (#0407002) following an approved Nanjing Medicinal University Institutional Review Board protocol. Within 2 hours of surgical resection, tumor tissues were cut into 1-2 mm fragments and implanted into SCID mice (B-NDG, 6 weeks old, female) using a surgical procedure approved by Nanjing Medicinal University Institutional Animal Care and Use committee. After surgery, tumor growth in the mice was monitored by palpating the abdomen twice per week. Tumors grew to 5-10 mm in diameter in about 8-10 weeks. The SCID mice bearing PDTX tumors were sacrificed, and tumor fragments of 1 to 2 mm in size were implanted into 6-week-old female SCID mice. Over 60% of the mice experienced tumor growth in approximately 6 weeks.

[4] = B-NDG mice, DMC-BH 7.5, 15 or 30 mg/kg, TMZ 20 mg/kg

Compound	tumor volume at day 21 (U87 cell line)	median survival (U87 cell line)	brain-to-plasma AUC(4h) ratio [1]	Kp at 4 h ([1]; brain and plasma)	logP ([2]; n-octanol/water (buffer), pH 7.4, n-octanol/water, read-out: logP)	logP ([2]; pH 2.5, n-octanol/water)	logP ([2]; pH 9.0, n-octanol/water)	tolerability in PDTX model [3, 4]	tumor growth in PDTX model [3, 4]	number of Ki67-positive cells in tumor ([3]; PDTX tumor, 20 mg/kg, compared with the control tumor)
Demethoxycurcumin [DMC, reference compound]	876 mm^3	19 days	0.56	–	–	–	–	–	–	–
COc1cc(C=CC(=O)CC(=O)C=Cc2ccc(O)c(CN3CCCC3)c2)ccc1O [DMC-BH, 1-[4-Hydroxy-3-(pyrrolidin-1-ylmethyl)phenyl]-7-(4-hydroxy-3-methoxyphenyl) hepta-1,6-diene-3,5-dione]	570 mm^3	35 days	–	4.6	3.26	negative	negative	tolerated	significant tumor regression	marked decrease

— paper PMC7762498, “Demethoxycurcumin analogue DMC-BH exhibits potent anticancer effects on orthotopic glioblastomas” (Aging (Albany NY), 2020)
